Patent publication US20210137948A1, “TREATMENT OF INFECTIONS CAUSED BY NEISSERIA GONOCOCCUS USING A HALOGENATED SALICYLANILIDE” (priority 2018, published 2021)
In brackets after ≈: the same amount, converted by molar mass. Where two headings read alike, the source gives them in different places.

Key:
[1] = tested on: Neisseria gonorrhoeae CDC panel consisting of 48 isolates; test: Agar dilution MIC, CDC panel of 48 isolates (Example 2); assay type: cell-based; conditions: for MIC: Neisseria gonorrhoeae
Protocol: Neisseria gonorrhoeae (Neisseria gonocossus) were tested for antimicrobial susceptibility using agar dilution as described by the Clinical and Laboratory Standards Institute (CLSI), see reference (4).
The concentrations tested for each compound encompass the reported interpretive breakpoints and consist of 8 or more doubling dilutions, ensuring that there is one dilution below the lowest value of QC.
GC agar base +1% defined growth supplement.
Initial screening strains: Neisseria gonorrhoeae CDC panel consisting of 48 isolates. The strains were provided by Clinical and Environmental Microbiology Branch, Division of Healthcare Quality Promotion, CDC (Atlanta, US).
Dilution scheme for reference method: Prepare intermediate 100× antimicrobial agent solutions by making successive serial twofold dilutions. Then, add one part of the 100× antimicrobial solution to […] of molten agar. Plates containing no antimicrobial agent solutions are made for use as growth controls. It is important that no longer than one hour elapses between the time that the stock solution is thawed, the dilutions are prepared and added to the base medium and the plates are poured, see reference (5).
• Add appropriate dilutions of antimicrobial solution to molten test agars that have been allowed to equilibrate in a water bath to 50° C. • Mix the agar and antimicrobial solution thoroughly and pour (20 mL) into Petri dishes on a level surface. Pour quickly after mixing to prevent cooling and partial solidification in the mixing container. Avoid generating bubbles when mixing. • Allow the agar to solidify at room temperature and store them in sealed plastic bags at 2 to 8° C. for up to five days. Preferably use with 24 hours. • Allow plates stored at 2 to 8° C. to equilibrate to room temperature before use. Make certain that the agar surface is dry before inoculating the plates. If necessary, place the plates in an incubator or laminar flow hood for approximately 30 minutes with their lids ajar to hasten drying of the agar surface.
Inoculum preparation: Prepare a standardized inoculum for the agar dilution method by suspending isolated colonies of Neisseria gonorrhoeae selected from an 18-24 hour-old chocolate agar plate directly in Mueller Hinton Broth (MHB) to achieve the density equivalent to a 0.5 McFarland standard and adjusted to obtain a cell density of ˜1-2×10^8 CFU/mL. For N. gonorrhoeae, the McFarland solutions are made at a reading of ˜0.80 in densitometer (Grant Instruments DEN-1B Densitometer) because these values have been evaluated and correspond to the desired CFU/mL count.
Dilution of inoculum suspension: Cultures adjusted to the 0.5 McFarland standard contain approximately 1 to 2×10^8 CFU/mL with most species, and the final inoculum required is 10^4 CFU per spot. When using replicators with 3-mm pins that deliver ˜2.5 μL, dilute the 0.5 McFarland suspension 1:10 in sterile MHB to obtain a concentration of 10^7 CFU/mL. The final inoculum on the agar will be approximately 10^4 CFU per spot. Use the adjusted suspensions for final inoculation within 60 minutes of preparation, see reference (5).
The following procedure was followed: • Arrange the tubes containing the adjusted and diluted bacterial suspensions (10^7 CFU/mL) in order in a rack. Place an aliquot of each well-mixed suspension into the corresponding well in the replicator inoculum block (if being used). • Mark the agar plates for orientation of the inoculum spots. • Apply an aliquot of each inoculum (2.5 μL) to the agar surface, either with an inocula-replicating device or pipette, to obtain a final concentration of ˜10^4 CFU/spot. • Inoculate a growth-control plate (no antimicrobial agent) first and then, starting with the lowest concentration, inoculate the plates containing the different antimicrobial concentrations. […]

mice = conditions: p.o., cited from earlier work
rats = conditions: p.o., cited from earlier work
rabbits = conditions: p.o.; cited from earlier work

O=C(Nc1ccc(Oc2ccc(Cl)cc2)c(Cl)c1)c1cc(I)cc(I)c1O [Rafoxanide, rafoxanide]
MIC ([1]; read-out: MIC value, for 46 of the 48 isolates of N. gonorrhoeae): ≤ 50.2 µg/mL | MIC ([1]; read-out: Minimal inhibitory concentration, Neisseria gonorrhoeae strain CDC # 165): ≤ 0.25 µg/mL | MIC ([1]; read-out: Minimal inhibitory concentration, Neisseria gonorrhoeae strain CDC # 166): ≤ 0.25 µg/mL | MIC ([1]; read-out: Minimal inhibitory concentration, Neisseria gonorrhoeae strain CDC # 167): ≤ 0.25 µg/mL | MIC ([1]; read-out: Minimal inhibitory concentration, Neisseria gonorrhoeae strain CDC # 169): ≤ 0.25 µg/mL | MIC ([1]; read-out: Minimal inhibitory concentration, Neisseria gonorrhoeae strain CDC # 170): ≤ 0.25 µg/mL | MIC ([1]; read-out: Minimal inhibitory concentration, Neisseria gonorrhoeae strain CDC # 171): ≤ 0.25 µg/mL | MIC ([1]; read-out: Minimal inhibitory concentration, Neisseria gonorrhoeae strain CDC # 172): ≤ 0.25 µg/mL | MIC ([1]; read-out: Minimal inhibitory concentration, Neisseria gonorrhoeae strain CDC # 173): ≤ 0.25 µg/mL | MIC ([1]; read-out: Minimal inhibitory concentration, Neisseria gonorrhoeae strain CDC # 174): ≤ 0.25 µg/mL | MIC ([1]; read-out: Minimal inhibitory concentration, Neisseria gonorrhoeae strain CDC # 175): ≤ 0.25 µg/mL | MIC ([1]; read-out: Minimal inhibitory concentration, Neisseria gonorrhoeae strain CDC # 176): ≤ 0.25 µg/mL | MIC ([1]; read-out: Minimal inhibitory concentration, Neisseria gonorrhoeae strain CDC # 177): ≤ 0.25 µg/mL | MIC ([1]; read-out: Minimal inhibitory concentration, Neisseria gonorrhoeae strain CDC # 178): ≤ 0.25 µg/mL | MIC ([1]; read-out: Minimal inhibitory concentration, Neisseria gonorrhoeae strain CDC # 179): ≤ 0.25 µg/mL | MIC ([1]; read-out: Minimal inhibitory concentration, Neisseria gonorrhoeae strain CDC # 180): ≤ 0.25 µg/mL | MIC ([1]; read-out: Minimal inhibitory concentration, Neisseria gonorrhoeae strain CDC # 181): ≤ 0.25 µg/mL | MIC ([1]; read-out: Minimal inhibitory concentration, Neisseria gonorrhoeae strain CDC # 182): 2 µg/mL (≈ 3.19 µM) | MIC ([1]; read-out: Minimal inhibitory concentration, Neisseria gonorrhoeae strain CDC # 183): ≤ 0.25 µg/mL | MIC ([1]; read-out: Minimal inhibitory concentration, Neisseria gonorrhoeae strain CDC # 184): ≤ 0.25 µg/mL | MIC ([1]; read-out: Minimal inhibitory concentration, Neisseria gonorrhoeae strain CDC # 185): ≤ 0.25 µg/mL | MIC ([1]; read-out: Minimal inhibitory concentration, Neisseria gonorrhoeae strain CDC # 186): ≤ 0.25 µg/mL | MIC ([1]; read-out: Minimal inhibitory concentration, Neisseria gonorrhoeae strain CDC # 187): ≤ 0.25 µg/mL | MIC ([1]; read-out: Minimal inhibitory concentration, Neisseria gonorrhoeae strain CDC # 188): ≤ 0.25 µg/mL | MIC ([1]; read-out: Minimal inhibitory concentration, Neisseria gonorrhoeae strain CDC # 189): ≤ 0.25 µg/mL | MIC ([1]; read-out: Minimal inhibitory concentration, Neisseria gonorrhoeae strain CDC # 190): ≤ 0.25 µg/mL | MIC ([1]; read-out: Minimal inhibitory concentration, Neisseria gonorrhoeae strain CDC # 191): ≤ 0.25 µg/mL | MIC ([1]; read-out: Minimal inhibitory concentration, Neisseria gonorrhoeae strain CDC # 192): ≤ 0.25 µg/mL | MIC ([1]; read-out: Minimal inhibitory concentration, Neisseria gonorrhoeae strain CDC # 193): ≤ 0.25 µg/mL | MIC ([1]; read-out: Minimal inhibitory concentration, Neisseria gonorrhoeae strain CDC # 194): ≤ 0.25 µg/mL | MIC ([1]; read-out: Minimal inhibitory concentration, Neisseria gonorrhoeae strain CDC # 195): ≤ 0.25 µg/mL | MIC ([1]; read-out: Minimal inhibitory concentration, Neisseria gonorrhoeae strain CDC # 196): ≤ 0.25 µg/mL | MIC ([1]; read-out: Minimal inhibitory concentration, Neisseria gonorrhoeae strain CDC # 198): ≤ 0.25 µg/mL | MIC ([1]; read-out: Minimal inhibitory concentration, Neisseria gonorrhoeae strain CDC # 199): ≤ 0.25 µg/mL | MIC ([1]; read-out: Minimal inhibitory concentration, Neisseria gonorrhoeae strain CDC # 200): ≤ 0.25 µg/mL | MIC ([1]; read-out: Minimal inhibitory concentration, Neisseria gonorrhoeae strain CDC # 201): ≤ 0.25 µg/mL | MIC ([1]; read-out: Minimal inhibitory concentration, Neisseria gonorrhoeae strain CDC # 202): ≤ 0.25 µg/mL | MIC ([1]; read-out: Minimal inhibitory concentration, Neisseria gonorrhoeae strain CDC # 203): ≤ 0.25 µg/mL | MIC ([1]; read-out: Minimal inhibitory concentration, Neisseria gonorrhoeae strain CDC # 204): 0.5 µg/mL (≈ 0.799 µM) | MIC ([1]; read-out: Minimal inhibitory concentration, Neisseria gonorrhoeae strain CDC # 205): ≤ 0.25 µg/mL | MIC ([1]; read-out: Minimal inhibitory concentration, Neisseria gonorrhoeae strain CDC # 206): ≤ 0.25 µg/mL | MIC ([1]; read-out: Minimal inhibitory concentration, Neisseria gonorrhoeae strain CDC # 207): ≤ 0.25 µg/mL | MIC ([1]; read-out: Minimal inhibitory concentration, Neisseria gonorrhoeae strain CDC # 208): ≤ 0.25 µg/mL | MIC ([1]; read-out: Minimal inhibitory concentration, Neisseria gonorrhoeae strain CDC # 209): ≤ 0.25 µg/mL | MIC ([1]; read-out: Minimal inhibitory concentration, Neisseria gonorrhoeae strain CDC # 210): ≤ 0.25 µg/mL | MIC ([1]; read-out: Minimal inhibitory concentration, Neisseria gonorrhoeae strain CDC # 211): ≤ 0.25 µg/mL | MIC ([1]; read-out: Minimal inhibitory concentration, Neisseria gonorrhoeae strain CDC # 212): ≤ 0.25 µg/mL | MIC ([1]; read-out: Minimal inhibitory concentration, Neisseria gonorrhoeae strain CDC # 213): ≤ 0.25 µg/mL | MIC ([1]; read-out: Minimal inhibitory concentration, Neisseria gonorrhoeae strain CDC # 214): ≤ 0.25 µg/mL | in vitro activity (in words) ([1]; against N. gonococcus (N. gonorrhoeae), Example 2 conclusion): Good in vitro activity | LD50, median (mice; median of the studies): 266 mg/kg | LD50 (mice): 232 to 300 mg/kg | LD50, median (rats; median of the studies): > 1490 mg/kg | LD50 (rats): 980->2000 mg/kg | LD50 (rabbits): 3200 mg/kg
